Laboratory results published in the OligoGym collection.
After the bases stand the sugars from the 5' end (letter, count) and the backbone: PS all phosphorothioate, else s phosphorothioate and o phosphodiester by linkage. Methylation of C is not given here. e = 2'-O-(2-methoxyethyl) (MOE); k = constrained ethyl (cEt); d = 2'-deoxy (DNA); m = 2'-O-methyl

Molecular target: HSD17B13
Conditions: ASO, HepaRG

Row | Sequence | target mRNA inhibition (1 µM) [%] | other results
1 | TTGAGTAGTGTAAGCT (sugars k3 d9 k3 e1, PS) | 40 | 
2 | TTGAGTTCTCCACTGC (sugars k3 d1 m1 d8 k3, PS) | 18 | 
3 | TTGATATACGATGGAA (sugars k3 d10 k3, PS) | 38 | 
4 | TTGATCTCTTAGCTGT (sugars k3 d10 k3, PS) | 74 | 
5 | TTGCAGAAATTCACCT (sugars k3 d1 m1 d8 k3, PS) | 29 | 
6 | TTGCAGAAATTCACCT (sugars kkdddddddddkekek, PS) | 46 | 
7 | TTGCAGTTATTAGAAG (sugars kkdddddddddkekek, PS) | 27 | 
8 | TTGCTGGAACAATATG (sugars k3 d10 k3, PS) | 20 | 
9 | TTGGAATGCTACTTGA (sugars k3 d10 k3, PS) | 72 | target mRNA inhibition (0.02 µM): 20%; target mRNA inhibition (0.078 µM): 33%; target mRNA inhibition (0.313 µM): 47%; target mRNA inhibition (1.25 µM): 80%; target mRNA inhibition (5 µM): 83%
10 | TTGGTAAGTATTCCAT (sugars k3 d10 k3, PS) | 20 | 
11 | TTGGTGAACCCAGTAT (sugars k3 d10 k3, PS) | 31 | 
12 | TTGGTGGACTTCAGAG (sugars k3 d10 k3, PS) | 8 | 
13 | TTGTAATCTTGAGGCA (sugars k3 d10 k3, PS) | 27 | 
14 | TTGTACCCTGTTCTCA (sugars k3 d10 k3, PS) | 64 | 
15 | TTGTTACATCACCCAC (sugars k3 d10 k3, PS) | 34 | 
16 | TTTAAAATAGAGTCGG (sugars k3 d9 k3 e1, PS) | 58 | 
17 | TTTAAAATAGAGTCGG (sugars k3 d10 k3, PS) | 69 | target mRNA inhibition (0.02 µM): 0%; target mRNA inhibition (0.078 µM): 0%; target mRNA inhibition (0.313 µM): 1%; target mRNA inhibition (1.25 µM): 48%; target mRNA inhibition (5 µM): 77%
18 | TTTAGAATACGCTGAG (sugars k3 d10 k3, PS) | 44 | 

Row | Sequence | target mRNA inhibition (1 µM) [%] | other results
19 | TTTAGTATTTGGGTGT (sugars k3 d10 k3, PS) | 21 | 
20 | TTTAGTCAGGTAGAGT (sugars k3 d10 k3, PS) | 30 | 
21 | TTTAGTTAGAATAGTC (sugars k3 d10 k3, PS) | 15 | 
22 | TTTCATAGCTCACTTA (sugars k3 d10 k3, PS) | 16 | 
23 | TTTCATATCCAGTAGG (sugars k3 d10 k3, PS) | 36 | 
24 | TTTCGCTACTGTAGGC (sugars k3 d10 k3, PS) | 62 | 
25 | TTTTAACTACCCTCAC (sugars k3 d10 k3, PS) | 2 | 
26 | TTTTAAGAGGCATGAA (sugars k3 d10 k3, PS) | 53 | 
27 | TTTTACTGGGATACTA (sugars k3 d10 k3, PS) | 27 | 
28 | TTTTAGGGAGGTAGCT (sugars k3 d10 k3, PS) | 39 | 
29 | TTTTAGTCAGGTAGAG (sugars k3 d10 k3, PS) | 3 | 
30 | TTTTATAGACTGGGTA (sugars k3 d10 k3, PS) | 53 | 
31 | TTTTATTGGGCCCAAT (sugars k3 d10 k3, PS) | 18 | 
32 | TTTTTAAGAGGCATGA (sugars k3 d10 k3, PS) | 60 | 
33 | TTTTTAATACGACTTC (sugars k3 d10 k3, PS) | 52 | 
34 | TTTTTATTGGGCCCAA (sugars k3 d10 k3, PS) | 51 | 
35 | TTTTTGAACCGTATTC (sugars k3 d10 k3, PS) | 56 | 
36 | TTTTTGGACAAATGCC (sugars k3 d10 k3, PS) | 50 | 
